Legend:
[1] = test system: patient-derived colorectal cancer organoid; settings: PDX model mouse, ICG001 + Trametinib; cited from earlier work
[2] = test system: human colorectal cancer cell line Colo205 cells; assay: Antitumor effect in transplantation model nude mouse with human colorectal cancer cell line Colo205 cells (Example 1); assay type: in vivo; settings: 14 days; for enhancement in antitumor effect (tumor volume) by combined use with Trametinib: combined with Trametinib 0.3 mg/kg p.o., formula (I) 12.5 or 25 mg/kg p.o., ICG001 100 mg/kg i.p., FIGS. 1-3
Description: Human colorectal cancer-derived cell line Colo205 cells (supplied by ATCC) were suspended in Hanks' Balanced Salt Solution (HBSS) (manufactured by FUJIFILM Wako Chemicals) at 5× 10^7 cells/mL. 0.1 mL of the obtained cell suspension was transplanted subcutaneously to a right frank of 6-week nude mice (CAnN.Cg-Foxn1 nu/CrlCrlj, manufactured by Charles River Laboratories Japan, Inc.). Ten days after the transplantation, a major axis and a minor axis of a tumor generated in each mouse were measured with a digimatic caliper (manufactured by Mitutoyo Corp.), and the mice were divided into groups each including six mice such that an average tumor volume was approximately equal. The tumor volume was calculated according to the following formula.
From ten days after the transplantation, the compound represented by formula (I) (12.5 mg/kg or 25 mg/kg, once a day, 14 days, orally administered), Trametinib (0.3 mg/kg, once a day, 14 days, orally administered), and ICG001 (100 mg/kg, once a day, 14 days, intraperitoneally administered) were administered singly or in combination to the mice in a single administration group or a combined administration group. Note that any one of the above agents was not administered to a control group.
Note that, at the time of administration, the compound represented by formula (I) was dissolved in 0.1 M hydrochloric acid at 1.25 mg/mL or 2.50 mg/mL, Trametinib (manufactured by Amadis Chemical) was dissolved in distilled water (pH 8.0) (manufactured by Otsuka Pharmaceutical Co., Ltd.) containing 0.5 w/v % of hydroxypropyl methyl cellulose (manufactured by FUJIFILM Wako Chemicals) and 0.2 w/v % of Tween80 (manufactured by Sigma) at 0.03 mg/mL, and ICG001 (manufactured by WuXi App Tec) was dissolved in physiological saline (manufactured by Otsuka Pharmaceutical Co., Ltd.) containing 3.5 w/v % of dimethylsulfoxide (manufactured by Wako Pure Chemical Industries, Ltd.) and 6.5 w/v % of Tween80 at 10 mg/mL.
The administration start day was defined as the first day, and a major axis and a minor axis of a tumor generated in each mouse were measured on the fifth day, the eighth day, the twelfth day, and the fifteenth day, and a tumor volume was calculated by a similar method to the above-described method. FIG. 1 illustrates a transition of the tumor volume in a case where 12.5 mg/kg of the compound represented by formula (I) and 0.3 mg/kg of Trametinib were administered singly or in combination. FIG. 2 illustrates a transition of the tumor volume in a case where 25.0 mg/kg of the compound represented by formula (I) and 0.3 mg/kg of Trametinib were administered singly or in combination. FIG. 3 illustrates a transition of the tumor volume in a case where 100 mg/kg of ICG001 and 0.3 mg/kg of Trametinib were administered singly or in combination. […]

[3] = test system: human colorectal cancer cell line HT-29 (BRAF V600E-mutant); settings: HT-29 subcutaneous mouse model, cited from earlier work
[4] = test system: human colorectal cancer cell line SW1463 cells; assay: Antitumor effect in transplantation model nude mouse with human colorectal cancer cell line SW1463 cells (Example 2); assay type: in vivo; settings: formula (I) 25.0 mg/kg + Trametinib 0.3 mg/kg + Adagrasib 10 mg/kg, p.o. once a day, 14 days
Description: (§1) The tumor volume was calculated according to the following formula.

[5] = test system: human non-small cell lung cancer cell line NCI-H358 cells; assay: Antitumor effect in transplantation model nude mouse with human non-small cell lung cancer cell line NCI-H358 cells (Example 4); assay type: in vivo; settings: p.o. once a day, 14 days
Description: as §1

[6] = test system: human colorectal cancer cell line Colo205 cells; assay: Antitumor effect in transplantation model nude mouse with human colorectal cancer cell line Colo205 cells (Example 3); assay type: in vivo; settings: p.o. once a day, 14 days
Description: as §1

[7] = test system: human melanoma cell line A375 cells; assay: Antitumor effect in transplantation model nude mouse with human melanoma cell line A375 cells (Example 5); assay type: in vivo; settings: p.o. once a day, 14 days
Description: as §1

[8] = formula (I) 25.0 mg/kg + Trametinib 0.3 mg/kg + Adagrasib 3 mg/kg, FIG. 12
[9] = formula (I) 25 mg/kg + Trametinib 0.3 mg/kg, FIG. 10
[10] = formula (I) 25 mg/kg + Trametinib 0.3 mg/kg, FIG. 7
[11] = formula (I) 25 mg/kg + Trametinib 0.3 mg/kg, FIG. 13

## O=C1[C@H](Cc2ccc(O)cc2)N2C(=O)CCN(C(=O)NCc3ccccc3)[C@H]2CN1Cc1cccc2ccccc12 [ICG001]
[1]
  antitumor effect, in combination with Trametinib compared to the single administration: antitumor effect is enhanced
[2]; once a day
  enhancement in antitumor effect (tumor volume) by combined use with Trametinib: remarkable enhancement in antitumor effect was not observed
[3]; ICG001 + Vemurafenib + Trametinib
  antitumor effect, in combination with both Vemurafenib and Trametinib compared to the single administration: antitumor effect is enhanced
[3]; ICG001 + Vemurafenib
  antitumor effect, in combination with Vemurafenib compared to the single administration: antitumor effect is enhanced

## C=CCN1CC(=O)N2[C@@H](Cc3ccc(O)cc3F)C(=O)N(Cc3cccc(N4CC(N5CCN(CC)CC5)C4)n3)C[C@@H]2N1C(=O)NCc1ccccc1 [compound represented by formula (I), (6S,9aS)—N-benzyl-8-({6-[3-(4-ethylpiperazin-1-yl)azetidin-1-yl]pyridin-2-yl}methyl)-6-(2-fluoro-4-hydroxybenzyl)-4,7-dioxo-2-(prop-2-en-1-yl)hexahydro-2H-pyrazino[2,1-c][1,2,4]triazine-1(6H)-carboxamide]
[4]; FIG. 5
  tumor proliferation, three-agent combination with Trametinib and Adagrasib compared with formula (I) singly or Trametinib + Adagrasib: inhibited tumor proliferation in a statistically significant manner
[4]; FIG. 6
  tumor proliferation, three-agent combination with Trametinib and Adagrasib compared with Adagrasib singly or formula (I) + Trametinib: inhibited tumor proliferation in a statistically significant manner
[2]; once a day
  enhancement in antitumor effect (tumor volume) by combined use with Trametinib: remarkable enhancement in antitumor effect
[2]; formula (I) 12.5 or 25 mg/kg p.o. + Trametinib 0.3 mg/kg p.o., once a day, FIGS. 1 and 2
  tumor proliferation, combined use with Trametinib compared with formula (I) or Trametinib administered singly: inhibited tumor proliferation in a statistically significant manner
[2]; formula (I) 12.5 or 25 mg/kg p.o. + Trametinib 0.3 mg/kg vs ICG001 100 mg/kg i.p. + Trametinib 0.3 mg/kg, FIG. 4
  tumor proliferation, combined administration with Trametinib compared with combined administration of ICG001 and Trametinib: inhibited tumor proliferation in a statistically significant manner
[5]; formula (I) 25.0 mg/kg + Trametinib 0.3 mg/kg + Adagrasib 3 mg/kg, FIG. 11
  tumor proliferation, three-agent combination with Trametinib and Adagrasib compared with formula (I) singly or Trametinib + Adagrasib: inhibited tumor proliferation in a statistically significant manner
[5]; [8]
  antitumor effect, three-agent combination with Trametinib and Adagrasib compared with two-agent formula (I) + Trametinib: enhancement tendency
  tumor proliferation, three-agent combination with Trametinib and Adagrasib compared with Adagrasib singly: inhibited tumor proliferation in a statistically significant manner
[5]; [9]
  antitumor effect, combined use with Trametinib compared with formula (I) or Trametinib administered singly: tendency to enhance the antitumor effect
  enhancement in antitumor effect (tumor volume) by combined use with Trametinib: remarkable enhancement in antitumor effect
[6]; formula (I) 25.0 mg/kg + Trametinib 0.3 mg/kg + Dabrafenib 30 mg/kg, FIG. 8
  tumor proliferation, three-agent combination with Trametinib and Dabrafenib compared with two-agent Trametinib + Dabrafenib: inhibited tumor proliferation in a statistically significant manner
[6]; formula (I) 25.0 mg/kg + Trametinib 0.3 mg/kg + Dabrafenib 30 mg/kg, FIG. 9
  tumor proliferation, three-agent combination with Trametinib and Dabrafenib compared with two-agent formula (I) + Trametinib: inhibited tumor proliferation in a statistically significant manner
[6]; [10]
  enhancement in antitumor effect (tumor volume) by combined use with Trametinib: remarkable enhancement in antitumor effect
  tumor proliferation, combined use with Trametinib compared with formula (I) or Trametinib administered singly: inhibited tumor proliferation in a statistically significant manner
[7]; formula (I) 25.0 mg/kg + Trametinib 0.3 mg/kg + Dabrafenib 30 mg/kg, FIG. 14
  tumor proliferation, three-agent combination with Trametinib and Dabrafenib compared with formula (I) singly or Trametinib + Dabrafenib: inhibited tumor proliferation in a statistically significant manner
[7]; formula (I) 25.0 mg/kg + Trametinib 0.3 mg/kg + Dabrafenib 30 mg/kg, FIG. 15
  tumor proliferation, three-agent combination with Trametinib and Dabrafenib compared with Dabrafenib singly or formula (I) + Trametinib: inhibited tumor proliferation in a statistically significant manner
[7]; [11]
  enhancement in antitumor effect (tumor volume) by combined use with Trametinib: remarkable enhancement in antitumor effect
  tumor proliferation, combined use with Trametinib compared with formula (I) or Trametinib administered singly: inhibited tumor proliferation in a statistically significant manner

From patent US20260232679A1, “PHARMACEUTICAL COMPOSITION FOR TREATING TUMORS” (Eisai R&D Management Co., Ltd., priority 2023, published 2026)
